Data on one compound can be found in patent US7816074B2, “α4 β2 δGABA-A receptors as a strategy for PMS and alcoholism” (priority 2003, dated 2010).

One assay deals with T1, α1β2 receptors (Rattus norvegicus, UniProt P62813+P63138).
T1 construct: expressed in transfected cells; host or cells: oocytes injected with cRNA (Xenopus laevis is named only)
Description: Two-electrode voltage-clamp of recombinant GABAA receptors in oocytes. The class given is cell-based, expressed in Xenopus laevis oocytes. The conditions noted are these: oocytes injected with α1+β2. An excerpt: (§1) Plasmids with inserts encoding GABAA receptor subunit sequence for rat α1 (62), rat β2 (83), rat α2 (62), rat α5 (62), mouse α4 (37), mouse β3 (82), rat β1 (83), rat γ2S (63), human δ (12), and human ε (11) were produced by subcloning each separately into an appropriate cloning vehicle such as PCDM8, pCDNA3.1 or pGHEMHE vectors (Invitrogen, Carlsbad Calif.) using a T7 promoter and standard subcloning techniques (59). Plasmids were linearized with an appropriate restriction enzyme at a site 3′ to the insert and cRNAs were synthesized using T3 or T7 polymerase (mMessage mMachine, Ambion, Tex.). The size of the cRNA was verified and RNA was quantified by ethidium bromide staining after electrophoresis on 1% agarose gels.
(§2) The preparation, injection, and maintenance of oocytes were carried out as described previously (78). […]
(§3) Voltage-clamp recording was carried out 1 to 3 days after injection of cRNAs. […] Oocytes were voltage-clamped at −70 mV and macroscopic currents were recorded with a two-electrode voltage-clamp using a Warner Instruments OC-725 amplifier as described previously (79). Currents were recorded on a chart recorder or by using Axograph on a Macintosh computer. […]
A general note: Two-electrode voltage clamp is typically applied to oocytes expressing channels or transporters.

Assay [1] concerns the target T2, α4β2δ GABAA receptors (UniProt O14764+P63138+Q9D6F4).
T2 construct: expressed in transfected cells
Described as above. The assay is classed as cell-based. The conditions noted are these: 1 mM ethanol.
Description: Oocytes were injected with receptor subunit cRNAs (2 to 20 ng) in the following ratios: α1:β1:γ2S, α1:β2:γ2S and α1:β1:ε1, 1:1:1; α2:β1:γ2S, α5:β1:γ2S, α4:β1:γ2S, and α4:β2:γ2S, 10:1:1; α4:β1:δ, α4:β2:δ, α4:β3δ, 10:1:10; α1:β2:δ, 1:1:10 or 1:0.5:3; α1:β1:δ, 1:1:10 or 1:0.5:3; α2:β1:δ and α2:β2:δ, 1:0.5:3; α1:β1, α1:β2, α2:β1, α2:β2, β2:γ2S and α4δ, 1:1, α4:β1, α4:β2, α4:β3, 10:1, β2δ, 1:10.
Voltage-clamp recording was carried out 1 to 3 days after injection of cRNAs. Electrodes were filled with 3 M KCl and had resistances of 0.4-4 MΩ. Oocytes were positioned in a small Perspex chamber and continuously superfused with a saline solution (100 mM NaCl, 2 mM KCl, 1.8 mM CaCl2, 10 mM HEPES, pH 7.5). Agonists and modulators were both applied in the same saline solution. Oocytes were voltage-clamped at −70 mV and macroscopic currents were recorded with a two-electrode voltage-clamp using a Warner Instruments OC-725 amplifier as described previously (79). Currents were recorded on a chart recorder or by using Axograph on a Macintosh computer.

Assay [2] has as its system GABAA receptors of acutely isolated CA1 hippocampal pyramidal cells. Description: Whole cell patch clamp, ethanol or THIP effect on GABA-gated current. The assay is classed as cell-based, rat. The note with it: for potentiation of GABA-gated currents: progesterone-withdrawal model; for potentiation of GABA-gated responses: after progesterone withdrawal. How it is done:
Pyramidal neurons were acutely dissociated from CA1 hippocampus and GABA-gated Cl^− currents analyzed using whole cell patch clamp procedures as previously described (67). Briefly, tissue was digested at 32° C. for 50-60 minutes under 100% O2 in PIPES-buffered saline containing (in mM): NaCl 120, KCl 5, CaCl2 1, MgCl2 1, D-glucose 25, PIPES 20 and trypsin (type XI, sigma) 0.8 mg/ml, pH 7.0. After 1 hour of enzyme-free incubation at room temperature, tissue was dissociated by trituration in 1 ml of 20 mM HEPES-buffered DMEM which was replaced by recording medium after transfer to the recording chamber. GABA-gated currents were recorded at room temperature (20-25° C.) at a holding potential of −50 mV in a bath containing (in mM): NaCl 120, CsCl 5, CaCl2 2, MgCl2 1, TEA Cl 15, 4-aminopyridine 5, HEPES 10 and glucose 25, pH 7.4, 320 mOsm/kg H2O. The pipette solution contained (in mM): N-methyl-D-glucamine chloride 120, Cs4BAPTA 5 and Mg-ATP 5. The ATP regeneration system Tris phosphocreatine (20 mM) and creatine kinase were added to minimize GABA rundown. All drugs were obtained from Sigma Chemical Co, (St. Louis, Mo.), except for BAPTA (Calbiochem, San, Diego, Calif.).
Peak currents were calculated for all drug concentrations as relative to the current gated by 10 μM GABA alone using the equation: ([peak current: GABA+ETOH]−[peak current: GABA alone])/[peak current: GABA alone]. Currents were recorded using an Axopatch 1D amplifier (Axon Instruments) filtered at 2 kHz (four-pole Bessel filter) and detected at 500 Hz (pClamp 5.1).
Following progesterone withdrawal or control conditions, pyramidal cells were acutely isolated from CA1 hippocampus as described (65,64). GABA-gated Cl^− currents were recorded using whole cell patch clamp techniques at a holding potential of −50 mV.
On the technique in general: In patch-clamp work, channel activity is measured electrically.

The target in assay [3] is α1β1 receptors / oocytes injected with α1+β1+δ (Rattus norvegicus, UniProt P15431+P62813). The note with it: 1 mM alcohol.
Source text: as §1, §2, §3

Assay [4] deals with T2, α4β2δ GABAA receptors. The note with it: oocytes (ref. 67), cited from earlier work.

Read-outs that look alike come from different tables or passages of the source.

T2 sequence (Q9D6F4 36-552): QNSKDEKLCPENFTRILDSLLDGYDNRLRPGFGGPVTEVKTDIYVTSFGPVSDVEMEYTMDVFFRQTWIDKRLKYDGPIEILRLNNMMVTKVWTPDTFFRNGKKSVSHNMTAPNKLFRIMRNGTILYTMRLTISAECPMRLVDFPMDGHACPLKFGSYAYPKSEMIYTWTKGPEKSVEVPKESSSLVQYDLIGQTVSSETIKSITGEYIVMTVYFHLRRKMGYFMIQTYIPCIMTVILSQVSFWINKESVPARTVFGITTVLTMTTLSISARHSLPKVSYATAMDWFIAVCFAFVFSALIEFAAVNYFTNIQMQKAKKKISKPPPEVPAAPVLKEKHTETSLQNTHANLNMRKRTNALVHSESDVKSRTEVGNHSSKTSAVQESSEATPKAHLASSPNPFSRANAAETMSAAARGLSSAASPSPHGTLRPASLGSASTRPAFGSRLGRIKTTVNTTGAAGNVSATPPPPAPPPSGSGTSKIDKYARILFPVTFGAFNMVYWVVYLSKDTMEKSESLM
T2 sequence (P63138 25-474 limits assumed): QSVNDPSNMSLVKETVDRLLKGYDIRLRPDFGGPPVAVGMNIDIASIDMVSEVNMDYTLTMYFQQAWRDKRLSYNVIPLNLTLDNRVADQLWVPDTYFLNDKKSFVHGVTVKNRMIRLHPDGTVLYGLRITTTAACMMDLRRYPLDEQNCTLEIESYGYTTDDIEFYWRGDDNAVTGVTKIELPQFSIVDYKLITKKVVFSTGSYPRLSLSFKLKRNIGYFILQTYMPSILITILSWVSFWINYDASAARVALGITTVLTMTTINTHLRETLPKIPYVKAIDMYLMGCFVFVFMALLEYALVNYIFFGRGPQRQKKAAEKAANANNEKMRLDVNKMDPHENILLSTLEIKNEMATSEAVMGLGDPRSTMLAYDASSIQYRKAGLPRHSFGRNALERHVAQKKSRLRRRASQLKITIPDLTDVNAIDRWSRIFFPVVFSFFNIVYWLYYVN
T2 sequence (O14764 17-452 limits assumed): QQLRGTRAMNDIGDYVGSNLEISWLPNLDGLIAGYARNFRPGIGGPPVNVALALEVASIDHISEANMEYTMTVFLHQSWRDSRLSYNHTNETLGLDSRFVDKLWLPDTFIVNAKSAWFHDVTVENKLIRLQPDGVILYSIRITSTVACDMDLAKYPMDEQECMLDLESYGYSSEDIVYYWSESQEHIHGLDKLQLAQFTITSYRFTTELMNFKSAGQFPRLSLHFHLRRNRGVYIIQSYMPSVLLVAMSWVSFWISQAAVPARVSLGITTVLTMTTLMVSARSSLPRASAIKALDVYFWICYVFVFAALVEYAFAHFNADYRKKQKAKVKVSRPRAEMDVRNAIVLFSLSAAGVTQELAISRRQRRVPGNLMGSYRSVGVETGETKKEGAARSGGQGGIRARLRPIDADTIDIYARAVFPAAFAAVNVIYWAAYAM
T1 sequence (P62813 28-455): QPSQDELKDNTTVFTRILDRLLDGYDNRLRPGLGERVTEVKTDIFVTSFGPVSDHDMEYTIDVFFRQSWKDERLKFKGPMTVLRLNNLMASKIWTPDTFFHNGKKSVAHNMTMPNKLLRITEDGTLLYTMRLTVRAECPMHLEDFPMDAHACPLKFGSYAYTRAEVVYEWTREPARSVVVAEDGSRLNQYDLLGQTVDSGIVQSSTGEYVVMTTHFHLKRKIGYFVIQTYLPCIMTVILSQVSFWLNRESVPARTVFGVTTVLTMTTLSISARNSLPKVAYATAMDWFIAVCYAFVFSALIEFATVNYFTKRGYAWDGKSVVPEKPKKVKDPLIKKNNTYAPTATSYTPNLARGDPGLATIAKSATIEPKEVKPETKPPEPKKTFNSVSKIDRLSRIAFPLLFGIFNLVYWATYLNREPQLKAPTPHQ
T1 sequence (P63138 25-474 limits assumed): as the sequence (P63138 25-474 limits assumed) above
α1β1 receptors / oocytes injected with α1+β1+δ, sequence (P62813 28-455): as the sequence (P62813 28-455) above
α1β1 receptors / oocytes injected with α1+β1+δ, sequence (P15431 26-474): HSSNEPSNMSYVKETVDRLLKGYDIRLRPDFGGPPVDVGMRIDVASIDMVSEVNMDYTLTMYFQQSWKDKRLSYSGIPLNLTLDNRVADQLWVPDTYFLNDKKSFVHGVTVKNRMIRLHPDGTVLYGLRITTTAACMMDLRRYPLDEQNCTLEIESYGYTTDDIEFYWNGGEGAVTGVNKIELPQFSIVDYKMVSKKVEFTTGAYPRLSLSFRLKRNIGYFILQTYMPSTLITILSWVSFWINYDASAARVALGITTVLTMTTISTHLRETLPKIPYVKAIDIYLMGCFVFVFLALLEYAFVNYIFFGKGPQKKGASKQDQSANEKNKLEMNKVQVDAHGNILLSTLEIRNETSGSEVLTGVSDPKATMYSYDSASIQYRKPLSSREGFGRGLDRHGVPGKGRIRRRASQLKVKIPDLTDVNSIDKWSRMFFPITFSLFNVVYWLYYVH

Regarding `CCO` [ethanol], the “responses to GABA in presence of alcohol, % of control” value on α1β2 receptors was 88-95 % of control. Also, at α4β2δ GABAA receptors [1], the “increase of GABA-gated currents at α4β2δ receptors” value came to 45±11%. For the same compound, the “GABA-modulatory effects of alcohol” value in assay [2] (1 mM alcohol, progesterone withdrawal with α4 expression suppressed) is on record as “prevented”. Further, the “potentiation of GABA-gated currents” value is on record as 81±21% in assay [2] (1 mM alcohol); “not as effective” in assay [2] (10 mM and greater alcohol). The “potentiation of GABA-gated responses” value in assay [2] (3 mM ethanol with 10 μM GABA) was 75±10%; in assay [2] (20 mM ethanol), “ineffective”. In addition, the “effect on GABA responses” value in assay [2] (3 or 20 mM ethanol, cells from control animals) is “neither concentration produced an effect”; in assay [3], “not altered”. Besides, the “effect on α4β2δ GABAA receptor” value on α4β2δ GABAA receptors [4] (ethanol 1-3 mM) is on record as “potentiated”; at α4β2δ GABAA receptors [4] (ethanol >10 mM), “ineffective”.
